Among the data in publication PMC5697189 (Journal of Veterinary Internal Medicine, 2017) are Km values, retold here.

Like-named read-outs stand apart in the source and are kept apart here.

The test system of assay [1] is recombinant canine GSTT5 (reference). Description: spectrophotometric glutathione conjugation assay, Michaelis-Menten fit. It is filed as biochemical, Canis lupus familiaris. The settings on record: co-substrate glutathione (5 mM); pH and temperature not stated.
For assay [2] the test system is unchanged. Particulars: co-substrate glutathione (5 mM); pH and temperature not stated.

Consider `O=[N+]([O-])c1ccc(Cl)c(Cl)c1` [1,2-dichloro-4-nitrobenzene, 1,2‐dichloro‐4‐nitrobenzene], for which the Michaelis constant (Km) (commonly the substrate concentration at which the rate is half of its maximum) came out at 168 ± 27 µM in assay [1] and 164 ± 22 µM in assay [2].
